From patent US20240158393A1, “PYRIDONE COMPOUNDS AND METHODS OF USE” (Exelixis, Inc., priority 2021, published 2024)

How the values were obtained:
Human Mer = molecular target: T1, Human Mer (Homo sapiens, UniProt Q12866); experiment: Human Mer kinase assay (33P radiometric / HTRF KinEase); format: biochemical; details: protocols of Examples C-1 and/or C-2
T1 construct: Human Mer (residues R557-E882 with H628Q and R794A, 0.7 nM); purchased Eurofins Pharma Discovery Services UK Limited (KinaseProfiler service)
T1 sequence (Q12866 557-882 limits assumed): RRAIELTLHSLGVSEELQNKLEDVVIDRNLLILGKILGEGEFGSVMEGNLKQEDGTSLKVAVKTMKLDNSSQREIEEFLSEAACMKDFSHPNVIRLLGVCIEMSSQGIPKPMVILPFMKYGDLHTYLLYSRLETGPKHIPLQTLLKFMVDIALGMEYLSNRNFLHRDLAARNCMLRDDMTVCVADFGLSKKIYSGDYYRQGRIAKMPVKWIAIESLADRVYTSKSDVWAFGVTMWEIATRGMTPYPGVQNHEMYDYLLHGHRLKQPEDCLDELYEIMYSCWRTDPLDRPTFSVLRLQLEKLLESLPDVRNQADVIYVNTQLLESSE
Description: (§1) Kinase activity and compound inhibition were investigated using the ^33P-Phosphoryl transfer radiometric kinase assay, performed using the KinaseProfiler™ service of Eurofins Pharma Discovery Services UK Limited. Dose-response experiments were performed using nine compound concentrations in a 96-well microtiter plate. For each assay, all compounds were prepared to a 50× final assay concentration (50 μM) in 100% DMSO, then diluted in a half-log series, with the final top concentration at 1 μM. This working stock of the compound was added to the assay well as the first component in the reaction, followed by the remaining components as detailed in the following assay protocols below. The positive control wells (100% kinase activity) contain all components of the reaction including 2% DMSO (control for solvent effects), except the compound of interest. Blank wells contain all components of the reaction, with the reference inhibitor, staurosporine. This reference compound was used to abolish kinase activity and generated the 0% kinase activity base-line. IC50 values were calculated by nonlinear regression analysis using the sigmoidal dose-response (variable slope) curve fit on XLFit version 5.3 (ID Business Solutions).
(§2) Kinase activity and compound inhibition were also investigated using the HTRF® KinEase assay (Cisbio Cat #62TKOPEB) per manufacturer's instructions. In short, compounds were delivered in 300 nL volumes at 10 different concentrations in DMSO (3% final) to empty 384-well assay plates (Corning cat #3824). A mixture of enzyme, 1 μM biotinylated peptide substrate, and buffer in 10 μL volume was added. The assay was started upon the addition of ATP (at Km). The 10 μL reaction was incubated at room temperature. The reaction was stopped upon the addition of detection buffer containing streptavidin-XL665 (5 μL) and TK antibody-Eu3+(5 μL). After a 60 min incubation at room temperature, the fluorescence at 665 nm and 620 nm was read on an Envision microplate reader (Perkin Elmer).
(§3) Kinase activity normalized to DMSO (100% activity) and reference compound at 1 μM and (0% activity) was calculated using the fluorescence ratio […]. IC50 values were calculated by nonlinear regression analysis using a 4-parameter logistic curve fit in ActivityBase XE (IDBS).
Example C-1: Human Mer (residues R557-E882 with H628Q and R794A, 0.7 nM) was incubated with 8 mM MOPS pH 7.0, 0.2 mM EDTA, 30 mM NaCl, 250 μM GGMEDIYFEFMGGKKK (SEQ ID NO: 2), 10 mM magnesium acetate, and 10 μM [γ-^33P-ATP]. The reaction was initiated by the addition of the Mg/ATP mix. After incubation for 40 minutes at room temperature, the reaction was stopped by the addition of phosphoric acid to a concentration of 0.5%. A reaction aliquot of 10 μL was then spotted onto a P30 filtermat and washed four times for 4 minutes in 0.425% phosphoric acid and once in methanol prior to drying and scintillation counting. Incorporated ^33P was measured using the Wallac Microbeta scintillation counter (Perkin Elmer).
Example C-2: Human MER (residues 528-999; CarnaBio, 1 ng/well) was also incubated with enzymatic buffer (Cisbio) supplemented with 5 mM MgCl2 and 1 mM DTT. The mixture was added to the pre-plated compounds. The reaction was initiated upon addition of ATP at Km (40 μM). The reaction was incubated at room temperature for 60 min and stopped upon the addition of SA-XL665 and TK-antibody both diluted in EDTA-containing kinase detection buffer (Cisbio). The kinase activity was calculated as stated above and the IC50 values were reported.

Human Axl = molecular target: T2, Human Axl (Homo sapiens, UniProt P30530); experiment: Human AXL kinase assay (33P radiometric / HTRF KinEase); format: biochemical; details: protocols of Examples A-1 and/or A-2
T2 construct: Human AXL (residues 464-885)
T2 sequence (P30530 1-894 Q764R): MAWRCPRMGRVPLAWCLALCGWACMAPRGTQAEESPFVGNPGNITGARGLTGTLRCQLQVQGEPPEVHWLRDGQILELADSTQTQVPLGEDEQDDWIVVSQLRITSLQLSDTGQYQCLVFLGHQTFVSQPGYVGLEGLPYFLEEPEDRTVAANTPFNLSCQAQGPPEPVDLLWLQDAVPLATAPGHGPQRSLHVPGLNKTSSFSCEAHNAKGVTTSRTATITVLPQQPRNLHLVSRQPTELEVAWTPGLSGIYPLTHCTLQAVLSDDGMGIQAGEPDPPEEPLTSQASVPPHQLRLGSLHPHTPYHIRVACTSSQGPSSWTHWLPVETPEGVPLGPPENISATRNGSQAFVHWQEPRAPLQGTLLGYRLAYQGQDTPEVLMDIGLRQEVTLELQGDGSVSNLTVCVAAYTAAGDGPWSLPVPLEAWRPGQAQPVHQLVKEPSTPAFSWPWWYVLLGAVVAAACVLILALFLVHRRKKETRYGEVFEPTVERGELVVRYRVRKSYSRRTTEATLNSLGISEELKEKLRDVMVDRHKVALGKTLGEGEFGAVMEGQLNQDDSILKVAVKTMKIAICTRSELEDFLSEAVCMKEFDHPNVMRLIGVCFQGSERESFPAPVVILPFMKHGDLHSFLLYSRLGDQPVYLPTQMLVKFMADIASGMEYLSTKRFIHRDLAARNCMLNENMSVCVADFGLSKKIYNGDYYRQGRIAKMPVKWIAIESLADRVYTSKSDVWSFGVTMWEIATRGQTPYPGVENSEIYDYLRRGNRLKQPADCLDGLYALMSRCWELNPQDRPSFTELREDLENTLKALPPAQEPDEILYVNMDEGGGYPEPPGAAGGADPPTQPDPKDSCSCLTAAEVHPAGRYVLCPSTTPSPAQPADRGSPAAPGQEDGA
Description: as §1, §2, §3
Example A-1: Human Axl (residues H473-A894 with Q764R, 161 nM) was incubated with 8 mM MOPS pH 7.0, 0.2 mM EDTA, 250 μM KKSRGDYMTMQIG (SEQ ID NO:1), 10 mM magnesium acetate and 10 μM [γ-^33P-ATP]. The reaction was initiated by the addition of the Mg/ATP mix. After incubation for 40 minutes at room temperature, the reaction was stopped by the addition of phosphoric acid to a concentration of 0.5%. A reaction aliquot of 10 μL was then spotted onto a P30 filtermat and washed four times for 4 minutes in 0.425% phosphoric acid and once in methanol prior to drying and scintillation counting. Incorporated ^33P was measured using the Wallac Microbeta scintillation counter (Perkin Elmer).
Example A-2: Human AXL (residues 464-885; CarnaBio, 1 ng/well) was also incubated with enzymatic buffer (Cisbio) supplemented with 5 mM MgCl2, 1 mM DTT, and Supplemental Enzymatic Buffer (SEB; Cisbio). The mixture was added to the pre-plated compounds. The reaction was initiated upon addition of ATP at Km (1.0 μM). The reaction was incubated at room temperature for 50 min and stopped upon the addition of SA-XL665 and TK-antibody both diluted in EDTA-containing kinase detection buffer (Cisbio). The kinase activity was calculated as stated above and the IC50 values were reported.

Compound: COCCOc1cnc2c(Oc3ccc(NC(=O)c4c(C)nc(C)c(C5=CCCC5)c4O)cc3F)ccnc2c1 [Compound 101, 5-(Cyclopenten-1-yl)-N-[3-fluoro-4-[[7-(2-methoxyethoxy)-1,5-naphthyridin-4-yl]oxy]phenyl]-4-hydroxy-2,6-dimethylpyridine-3-carboxamide]
- IC50 (Human Mer): ≤ 0.1 µM
- IC50 (Human Axl): ≤ 0.1 µM
